Measurements taken from PubChem BioAssay AID248 (DTP/NCI, 2004).
Several values for one entry are separate records, joined by “and”; a condition that tells them apart may be missing. Equal values may be shown once. Inconclusive results and toxic doses are left out. No stated cut-off is given here; in the data, active means T/C of 150% or more; inactive means T/C below 125%.

Test system: L1210 leukemia ip in BDF1 mice, survival T/C
Assay: NCI In Vivo Anticancer Drug Screen. Data for tumor model L1210 Leukemia (intraperitoneal) in B6D2F1 (BDF1) mice
Conditions: endpoint: mean survival time, higher = longer survival
Summary of the method: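 Tumor cells were implanted, animals were treated, and survival was followed. The result divides the treated measurement by the vehicle-control measurement.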

[1] = dose: 100.0 mg/kg/injection, schedule: Q04DX003 (ip), vehicle: Klucel (hydroxypropylcellulose) (HPC)
[2] = dose: 200.0 mg/kg/injection, schedule: Q04DX003 (ip), vehicle: Klucel (hydroxypropylcellulose) (HPC)
[3] = dose: 400.0 mg/kg/injection, schedule: Q04DX003 (ip), vehicle: Klucel (hydroxypropylcellulose) (HPC)
[4] = dose: 100.0 mg/kg/injection, schedule: Q04DX002 (ip), vehicle: Klucel (hydroxypropylcellulose) (HPC)
[5] = dose: 200.0 mg/kg/injection, schedule: Q04DX002 (ip), vehicle: Klucel (hydroxypropylcellulose) (HPC)
[6] = dose: 100.0 mg/kg/injection, schedule: Q01DX009 (ip), vehicle: saline
[7] = dose: 200.0 mg/kg/injection, schedule: Q01DX009 (ip), vehicle: saline
[8] = dose: 400.0 mg/kg/injection, schedule: Q01DX009 (ip), vehicle: saline
[9] = dose: 50.0 mg/kg/injection, schedule: Q01DX009 (ip), vehicle: saline with Tween-80
[10] = dose: 100.0 mg/kg/injection, schedule: Q04DX003 (ip), vehicle: alcohol
[11] = dose: 200.0 mg/kg/injection, schedule: Q04DX003 (ip), vehicle: alcohol
[12] = dose: 100.0 mg/kg/injection, schedule: Q01DX009 (ip), vehicle: saline with Tween-80
[13] = dose: 100.0 mg/kg/injection, schedule: Q04DX003 (ip), vehicle: saline with Tween-80
[14] = dose: 200.0 mg/kg/injection, schedule: Q01DX009 (ip), vehicle: saline with Tween-80
[15] = dose: 200.0 mg/kg/injection, schedule: Q04DX003 (ip), vehicle: saline with Tween-80
[16] = dose: 400.0 mg/kg/injection, schedule: Q01DX009 (ip), vehicle: saline with Tween-80
[17] = dose: 400.0 mg/kg/injection, schedule: Q04DX003 (ip), vehicle: saline with Tween-80

Measured: T/C

Nc1ccc(C(=O)O)cc1
inactive: [1] 96 % of control | [2] 106 % of control | [3] 113 % of control

O=C(c1ccccc1)C(c1ccccc1)(c1ccccc1)c1ccccc1
inactive: dose: 50.0 mg/kg/injection, schedule: Q01DX001 (ip), vehicle: carboxymethylcellulose (CMC) 90 % of control | dose: 100.0 mg/kg/injection, schedule: Q01DX001 (ip), vehicle: carboxymethylcellulose (CMC) 95 % of control | [4] 97 % of control | dose: 200.0 mg/kg/injection, schedule: Q01DX001 (ip), vehicle: carboxymethylcellulose (CMC) 108 % of control | [5] 94 % of control | dose: 400.0 mg/kg/injection, schedule: Q01DX001 (ip), vehicle: carboxymethylcellulose (CMC) 123 % of control | dose: 400.0 mg/kg/injection, schedule: Q04DX002 (ip), vehicle: Klucel (hydroxypropylcellulose) (HPC) 97 % of control

O=C1CSCC(=O)N1
inactive: [6] 102 % of control | [7] 97 % of control | [8] 103 % of control

COc1ccc(/C=N/N=c2\[nH][nH]/c(=N\N=C\c3ccc(OC)c4ccccc34)c3ccccc23)c2ccccc12
inactive: dose: 50.0 mg/kg/injection, schedule: Q01DX001 (ip), vehicle: saline 100 % of control | dose: 100.0 mg/kg/injection, schedule: Q01DX001 (ip), vehicle: saline 100 % of control | dose: 200.0 mg/kg/injection, schedule: Q01DX001 (ip), vehicle: saline 103 % of control | dose: 400.0 mg/kg/injection, schedule: Q01DX001 (ip), vehicle: saline 105 % of control

Nc1ccc2cc(O)ccc2c1
inactive: [9] 94 % of control

O=C1CC(c2ccc(Cl)cc2)C(=O)O1 (centres undefined)
inactive: dose: 100.0 mg/kg/injection, schedule: Q01DX001 (ip), vehicle: acetone 98 % of control | [10] 98 % of control | dose: 200.0 mg/kg/injection, schedule: Q01DX001 (ip), vehicle: acetone 101 % of control | [11] 104 % of control | dose: 400.0 mg/kg/injection, schedule: Q01DX001 (ip), vehicle: acetone 94 % of control

Nc1nc(=S)[nH]c(C(=O)O)c1Cc1ccccc1
inactive: dose: 10.0 mg/kg/injection, schedule: Q04DX003 (ip), vehicle: Klucel (hydroxypropylcellulose) (HPC) 101 % of control | dose: 20.0 mg/kg/injection, schedule: Q01DX009 (ip), vehicle: Klucel (hydroxypropylcellulose) (HPC) 92 % of control | dose: 20.0 mg/kg/injection, schedule: Q04DX003 (ip), vehicle: Klucel (hydroxypropylcellulose) (HPC) 95 % of control | dose: 40.0 mg/kg/injection, schedule: Q01DX009 (ip), vehicle: Klucel (hydroxypropylcellulose) (HPC) 104 % of control | dose: 40.0 mg/kg/injection, schedule: Q04DX003 (ip), vehicle: Klucel (hydroxypropylcellulose) (HPC) 98 % of control | dose: 80.0 mg/kg/injection, schedule: Q01DX009 (ip), vehicle: Klucel (hydroxypropylcellulose) (HPC) 98 % of control

Nc1nc(N)c2nc3c(nc2n1)C(=O)N(c1ccc(C(=O)NC(CCC(=O)O)C(=O)O)cc1)C3 (centres undefined)
inactive: [6] 94 % of control | [7] 98 % of control | [8] 86 % of control

CC(O)(C(=O)c1ccccc1)c1ccc(Cl)cc1 (centres undefined)
inactive: [1] 95 % of control | [2] 98 % of control | [3] 101 % of control

COC(=O)C1(O)CC(=O)CCC1c1ccccc1 (centres undefined)
inactive: [1] 105 % of control | [2] 94 % of control | [3] 95 % of control

CC(=O)OCC(=O)[C@@]1(O)CC[C@H]2[C@@H]3C[C@H](F)C4=CC(=O)CC[C@]4(C)[C@H]3C(=O)C[C@@]21C
inactive: dose: 0.78 mg/kg/injection, schedule: Q01DX005 (ip), vehicle: saline 102 % of control | dose: 1.56 mg/kg/injection, schedule: Q01DX005 (ip), vehicle: saline 102 % of control | dose: 3.12 mg/kg/injection, schedule: Q01DX005 (ip), vehicle: saline 104 % of control | dose: 100.0 mg/kg/injection, schedule: Q01DX001 (sc), vehicle: steriod suspending solution 96 % of control | dose: 200.0 mg/kg/injection, schedule: Q01DX001 (sc), vehicle: steriod suspending solution 104 % of control | dose: 400.0 mg/kg/injection, schedule: Q01DX001 (sc), vehicle: steriod suspending solution 102 % of control

O=C1C=CC(=O)N1c1ccccc1[N+](=O)[O-]
inactive: dose: 1.5 mg/kg/injection, schedule: Q01DX009 (ip), vehicle: Klucel (hydroxypropylcellulose) (HPC) 97 % of control | dose: 3.0 mg/kg/injection, schedule: Q01DX009 (ip), vehicle: Klucel (hydroxypropylcellulose) (HPC) 103 % of control | dose: 6.0 mg/kg/injection, schedule: Q01DX009 (ip), vehicle: Klucel (hydroxypropylcellulose) (HPC) 94 % of control

CCOCC(OC)OC
inactive: [6] 95 % of control | dose: 100.0 mg/kg/injection, schedule: Q04DX003 (ip), vehicle: saline 93 % of control | [7] 97 % of control | dose: 200.0 mg/kg/injection, schedule: Q04DX003 (ip), vehicle: saline 98 % of control | [8] 97 % of control | dose: 400.0 mg/kg/injection, schedule: Q04DX003 (ip), vehicle: saline 107 % of control

Clc1cc(NCc2ccco2)ncn1
inactive: dose: 50.0 mg/kg/injection, schedule: Q01DX001 (ip), vehicle: Klucel (hydroxypropylcellulose) (HPC) 103 % of control | dose: 100.0 mg/kg/injection, schedule: Q01DX001 (ip), vehicle: Klucel (hydroxypropylcellulose) (HPC) 97 % of control | dose: 200.0 mg/kg/injection, schedule: Q01DX001 (ip), vehicle: Klucel (hydroxypropylcellulose) (HPC) 97 % of control

Cc1c(Cl)cccc1NC(=O)Nc1ccc(S(N)(=O)=O)cc1
inactive: [12] 93 % of control and 97 % of control | dose: 100.0 mg/kg/injection, schedule: Q04DX002 (ip), vehicle: saline with Tween-80 101 % of control and 110 % of control | [13] 100 % of control | [14] 104 % of control and 105 % of control | dose: 200.0 mg/kg/injection, schedule: Q04DX002 (ip), vehicle: saline with Tween-80 101 % of control and 104 % of control | [15] 95 % of control | [16] 93 % of control and 101 % of control | dose: 400.0 mg/kg/injection, schedule: Q04DX002 (ip), vehicle: saline with Tween-80 93 % of control and 95 % of control | [17] 92 % of control

CCOc1ccn(C2CCOC2=O)c(=O)n1 (centres undefined)
inactive: [6] 100 % of control | [10] 104 % of control | [7] 97 % of control | [11] 102 % of control | [8] 100 % of control | dose: 400.0 mg/kg/injection, schedule: Q04DX003 (ip), vehicle: alcohol 102 % of control

CCCCCCC(=O)N1CCCC(C)C1 (centres undefined)
inactive: [4] 98 % of control | [5] 106 % of control

Cc1ccc(S(=O)C(c2ccccc2)C(c2ccccc2)C(C)O)cc1 (centres undefined)
inactive: [12] 89 % of control | [14] 89 % of control | [16] 91 % of control

COC1OC(COC(c2ccccc2)(c2ccccc2)c2ccccc2)C(OC)C(OC)C1OC (centres undefined)
inactive: [13] 93 % of control | [15] 94 % of control | [17] 88 % of control

COC(=O)C(CCCCN=Cc1ccccc1O)N=Cc1ccccc1O.[Cu] (centres undefined)
inactive: dose: 6.25 mg/kg/injection, schedule: Q01DX009 (ip), vehicle: saline with Tween-80 96 % of control | dose: 12.5 mg/kg/injection, schedule: Q01DX009 (ip), vehicle: saline with Tween-80 93 % of control | dose: 25.0 mg/kg/injection, schedule: Q01DX009 (ip), vehicle: saline with Tween-80 96 % of control and 98 % of control | [9] 103 % of control | [13] 96 % of control
